Data reported in patent US7662769B2, “Glycosyltransferase GnT-V having neovascularization action” (Suntory Holdings Limited, priority 2002, dated 2010).
Entries after “also recorded” stand apart in the source; their conditions may differ. Where no end group is shown, it is not given here.

B1: GnT-VΔ188: GnT-V lacking variant shown in FIG. 3A, recombinant from Sf21 cells (protein, UniProt Q09328 189-741, looked up, fragment)
chain: LSEVENWCPHLPWRAKNPYEEADHNSLAEIRTDFNILYSMMKKHEEFRWMRLRIRRMADAWIQAIKSLAEKQNLEKRKRKKVLVHLGLLTKESGFKIAETAFSGGPLGELVQWSDLITSLYLLGHDIRISASLAELKEIMKKVVGNRSGCPTVGDRIVELIYIDIVGLAQFKKTLGPSWVHYQCMLRVLDSFGTEPEFNHANYAQSKGHKTPWGKWNLNPQQFYTMFPHTPDNSFLGFVVEQHLNSSDIHHINEIKRQNQSLVYGKVDSFWKNKKIYLDIIHTYMEVHATVYGSSTKNIPSYVKNHGILSGRDLQFLLRETKLFVGLGFPYEGPAPLEAIANGCAFLNPKFNPPKSSKNTDFFIGKPTLRELTSQHPYAEVFIGRPHVWTVDLNNQEEVEDAVKAILNQKIEPYMPYEFTCEGMLQRINAFIEKQDFCHGQVMWPPLSALQVKLAEPGQSCKQVCQESQLICEPSFFQHLNKDKDMLKYKVTCQSSELAKDILVPSFDPKNKHCVFQGDLLLFSCAGAHPRHQRVCPCRDFIKGQVALCKDCL
B2: α1,6-fucosyltransferase (protein, UniProt Q9BYC5 1-575, looked up)
Alpha-(1,6)-fucosyltransferase: MRPWTGSWRWIMLILFAWGTLLFYIGGHLVRDNDHPDHSSRELSKILAKLERLKQQNEDLRRMAESLRIPEGPIDQGPAIGRVRVLEEQLVKAKEQIENYKKQTRNGLGKDHEILRRRIENGAKELWFFLQSELKKLKNLEGNELQRHADEFLLDLGHHERSIMTDLYYLSQTDGAGDWREKEAKDLTELVQRRITYLQNPKDCSKAKKLVCNINKGCGYGCQLHHVVYCFMIAYGTQRTLILESQNWRYATGGWETVFRPVSETCTDRSGISTGHWSGEVKDKNVQVVELPIVDSLHPRPPYLPLAVPEDLADRLVRVHGDPAVWWVSQFVKYLIRPQPWLEKEIEEATKKLGFKHPVIGVHVRRTDKVGTEAAFHPIEEYMVHVEEHFQLLARRMQVDKKRVYLATDDPSLLKEAKTKYPNYEFISDNSISWSAGLHNRYTENSLRGVILDIHFLSQADFLVCTFSSQVCRVAYEIMQTLHPDASANFHSLDDIYYFGGQNAHNQIAIYAHQPRTADEIPMEPGDIIGVAGNHWDGYSKGVNRKLGRTGLYPSYKVREKIETVKYPTYPEAEK
notes: recombinant α1,6-fucosyltransferase used as control glycosyltransferase
B3: GnT-VΔ73: soluble recombinant GnT-V maintaining a glycosyltransferase activity but lacking in transmembrane portion, prepared by a Baculovirus system (protein, UniProt Q09328 74-741, looked up, fragment)
chain: AGVMTAYDLKKTLAVLLDNILQRIGKLESKVDNLVVNGTGTNSTNSTTAVPSLVALEKINVADIINGAQEKCVLPPMDGYPHCEGKIKWMKDMWRSDPCYADYGVDGSTCSFFIYLSEVENWCPHLPWRAKNPYEEADHNSLAEIRTDFNILYSMMKKHEEFRWMRLRIRRMADAWIQAIKSLAEKQNLEKRKRKKVLVHLGLLTKESGFKIAETAFSGGPLGELVQWSDLITSLYLLGHDIRISASLAELKEIMKKVVGNRSGCPTVGDRIVELIYIDIVGLAQFKKTLGPSWVHYQCMLRVLDSFGTEPEFNHANYAQSKGHKTPWGKWNLNPQQFYTMFPHTPDNSFLGFVVEQHLNSSDIHHINEIKRQNQSLVYGKVDSFWKNKKIYLDIIHTYMEVHATVYGSSTKNIPSYVKNHGILSGRDLQFLLRETKLFVGLGFPYEGPAPLEAIANGCAFLNPKFNPPKSSKNTDFFIGKPTLRELTSQHPYAEVFIGRPHVWTVDLNNQEEVEDAVKAILNQKIEPYMPYEFTCEGMLQRINAFIEKQDFCHGQVMWPPLSALQVKLAEPGQSCKQVCQESQLICEPSFFQHLNKDKDMLKYKVTCQSSELAKDILVPSFDPKNKHCVFQGDLLLFSCAGAHPRHQRVCPCRDFIKGQVALCKDCL

Experiments:
HSPG on HUVEC = experiment: release of FGF-2 from HSPG on HUVEC (FGF-2 ELISA of supernatant); assay type: cell-based, human; conditions: 4° C., 2 hours; FIG. 5
From the text: A basic peptide (KRKRKK peptide) composed of Lys-Arg-Lys-Arg-Lys-Lys (SEQ ID NO: 11) which is an amino acid sequence of from 264 to 269 and a non-basic control peptide (FSGGPL peptide) composed of Phe-Ser-Gly-Gly-Pro-Leu (SEQ ID NO: 12) which is an amino acid sequence of from 291 to 296, of GnT-V, were synthesized, and an influence of these peptides on growth of HUVEC was examined. The peptide was synthesized by a peptide synthesizer A432 (manufactured by Applied Biosystems), and purified by reverse phase HPLC, then, its molecular weight and degree of purification were confirmed by MALDI TOF-MS (Voyager-DE (registered trademark) RP; manufactured by PerSeptive Biosystems). The concentration of FGF-2 was measured by a known method (Barillari, G., et al., American J. Patho. 152, 1161-1166 (1998)). […] After centrifugation at 4° C. and 3000 rpm for 5 minutes, the supernatant was collected, the concentration of FGF-2 in the supernatant was measured in an FGF-2 ELISA system (manufactured by R&D Systems) according to a manual of this system.
As described above, various deficient variants of GnT-V and synthetic peptides were added at 4° C. to culture solution of HUVEC, and the amount of FGF-2 released from HSPG on HUVEC was measured.

chicken microvessels = experiment: CAM (chorioallantoic membrane) assay of neovascularization; assay type: in vivo; conditions: ex-vivo, chicken embryo CAM
Procedure: Acceleration of neovascularization by a GnT-V transformant was confirmed by a CAM (chorioallantoic membrane) assay using an embryo of a chicken fertilized egg. The CAM assay was conducted by a method of Yen et al. (Yen, L., et al., Oncogene 19, 3460-3469 (2000)) and a method of Bernardini (Bernardini, G., et al., Blood 96, 4039-4045 (2000)), both being slightly modified. CAM 8 days after fertilization of white Leghorn was used, and 1×10^5 cells thereof were inoculated on a collagen sponge and maintained for 4 hours. A 5 mm silicon ring was placed on CAM on the collagen sponge and maintained for 48 hours.
Induction of neovascularization by GnT-V was confirmed also by other in vitro neovascularization assays such as a capillary-like tube formation assay (Ashoton, A. W., et al., J. Biol. Chem. 274, 35562-35570 (1999)) and a migration assay (Zeng, H., et al., J. Biol. Chem. 276, 3271-3279 (2001)) using HUVEC.

HUVEC = HUVEC differentiation and growth, incorporation of [3H]-thymidine (DNA synthesis); assay type: cell-based, human; conditions: [3H]-thymidine incorporation; FIG. 2, 3B, 6
Procedure: For in vitro evaluation of induction of neovascularization by a GnT-V transformant, the amount of synthesis of DNA of human umbilical vein […] cells (HUVEC) after stimulation with culture solution of a GnT-V transformant was measured by a method of Soker et al.(Soker, S., et al., J. Biol. Chem. 272, 31582-31588 (1997)). HUVEC was inoculated on a 96-well plate coated with type I collagen at a rate of 2×10^3 cells per well, and 24 hours later, the medium was substituted with an MCDB131 medium (not containing FBS and FGF-2) containing 0.1% […] and a starved condition was maintained for 24 hours. The medium was substituted with culture solution of the WiDr cell transformed with the glycosyltransferase gene described in Example 1, and HUVEC was stimulated for 24 hours. HUVEC was maintained for 8 hours with [^3H]-thymidine (1 μCi/ml), and incorporation of [^3H]-thymidine into HUVEC was analyzed by MicroBeta-Counter (manufactured by Wallac) to measure the amount of synthesis of DNA. The result was shown as the mean value of assay results of 6 wells, and the standard deviation was measured. All experiments were repeated at least three times, and the same results were obtained. As apparent from FIG. 1, DNA synthesis of HUVEC stimulated with the culture solution of WiDr cells transformed with a GnT-V gene increased, however, the same effect was not observed in culture solution of WiDr cells transformed with other glycosyltransferase genes.
Purification of a neovascularization factor present in culture solution of WiDr cells transformed with a GnT-V gene was conducted using various column chromatographies. The neovascularization activity of each fraction was evaluated by differentiation and growth of HUVEC described in Example 3. In heparin affinity chromatography, a fraction of high growth activity of HUVEC was eluted with 0.3 M NaCl. Since known growth factors such as FGF-1, FGF-2, VEGF, placenta-induced growth factor (PIGF) and hepatocyte growth factor (HGF) and the like are eluted with 0.8 to 1.5 M NaCl (Hauser, S. & Weich H. A., Growth Factor 9, 259-268 (1993). Gohda, E., et al., J. Clin. Invest. 81, 414-419 (1998). Marez, A., et al., Biochimie 69, 125-129 (1987). Risau, W., et al., The EMBO J. 7, 959-962 (1988). Rothenthal, R. A., et al., Growth Factor 4, 53-59 (1990)), the above-mentioned nature is utterly different from the natures of these known growth factors. […] A fraction eluted with 0.3 M NaCl in heparin affinity chromatography was subjected to Western blot analysis using an anti-GnT-V antibody to find that the reaction of the anti-GnT-V antibody and the differentiation and growth activity of HUVEC are consistent each other, and the main protein having a differentiation and growth activity of HUVEC present in the fraction is GnT-V itself.

[1] = glycosyltransferase activity of GnT-V deficient variants; assay type: biochemical; conditions: recombinant variants from Sf21 cells
From the text: For clarifying which domain of GnT-V is involved in HUVEC growth accelerating activity, a GnT-V lacking variant shown in FIG. 3A was produced. The method of production of a GnT-VΔ188 plasmid is disclosed in a literature of Sasai et al (Sasai, K., et al., Glycobiology (in press)). A transfer plasmid having a GnT-VΔ233 gene was produced by binding a DNA fragment of 1521 base pairs encoding polyhistidine tag at the C-terminal and an amino acid sequence of from Glu234 to Leu741 of human GnT-V, obtained by cutting a GnT-VΔ188 plasmid with EcoRI and EagI, to an EcoRI-EagI site of a transfer vector pAcGP67-A (manufactured by PharMingen). A transfer plasmid having a GnT-VΔ436 gene was produced by binding a DNA fragment of 912 base pairs encoding polyhistidine tag at the C terminal and an amino acid sequence of from Ile437 to Leu741, of human GnT-V, obtained by cutting a GnT-VΔ188 plasmid with EcoRV and EagI, to an EcoRV-EagI site of a transfer vector pAcGP67-A. For production of a recombinant Baculovirus, an insect cell Sf21 was transformed with the transfer plasmid obtained above according to a method known in a literature (Ikeda, Y., et al., J. Biochem. 128, 609-619 (2000)). The recombinant glycosyltransferase derived from the transformed Sf21 cell was purified by Ni^2+-chelating affinity chromatography according to a method disclosed in a literature of Sasaki et al (Sasai, K., et al., Glycobiology (in press)).

| Molecule | release of FGF-2 from HSPG on HUVEC (HSPG on HUVEC) | induction of neovascularization in CAM assay (chicken microvessels) | differentiation and growth of HUVEC (HUVEC growth accelerating activity) (HUVEC) | glycosyltransferase activity [1] |
| --- | --- | --- | --- | --- |
| FSGGPL [FSGGPL peptide, reference compound] | did not affect release of FGF-2 | did not have a neovascularization activity |  |  |
| heparin [reference compound] | induced release of FGF-2 |  |  |  |
| KRKRKK [KRKRKK peptide] | released FGF-2 | induced neovascularization likewise | accelerated growth of HUVEC at the same degree as GnT-VΔ73 |  |
| FGF-2: fibroblast growth factor-2 [reference compound] |  | induced neovascularization of chicken microvessels |  |  |
| B1 | released FGF-2 |  | had an HUVEC growth and differentiation accentuation action | had a glycosyltransferase activity |
| B2 |  |  | did not show HUVEC growth accelerating activity at all |  |
| B3 | released FGF-2 | induced neovascularization of chicken microvessels | increased in addition amount-dependent manner; also recorded: had an HUVEC growth and differentiation accentuation action |  |
